Test results taken from patent US4994450A, “Azacyclic compounds and their use as analgesic agents” (Dr. Lo. Zambeletti S.p.A., priority 1988, dated 1991).
Structures can show the parent of a compound that is named as a salt.

What was measured:
[1] = biological target: T1, Kappa opiate receptor (spinal cord) (Cavia porcellus, UniProt P41144); assay: Opiate receptor binding, kappa (spinal cord)
T1 construct: spinal cord kappa-receptors; from tissue
Method: (§1) The binding to the K-sites is performed using ^3 H-Ethyl Ketocyclazocine, a non-selective benzomorphan compound which binds to μ, δ and K-sites, in the presence of 100nM of unlabelled DAGO and 100nM of the enkephalin analogue [DAla^2 -DLeu^5 ]Enkephalin (DADLE), to prevent μ and δ binding respectively.
Final homogenate with solutions of the cold ligand and of the labelled ligand is incubated for 40 min. at 25° C., filtered through Whatman GF/C glass filter discs and washed.
(§2) The radioactivity bound to the filters is counted by liquid scintillation spectrophotometry.
(§3) The non-specific binding is determined in the presence of 500nM of the benzomorphan non-selective compound Mr 2266.
(§4) The equilibrium dissociation constant (KD) and the maximum binding capacity (Bmax) are determined from the analysis of saturation curves, while the inhibition constant (Ki) is determined from the analysis of competition experiments (Hill 1910; Scatchard 1949; Cheng and Prusoff 1973; Gillan et al. 1980) Published references are summarised as follows: […]

[2] = biological target: T2, Mu opiate receptor (brain) (Cavia porcellus, UniProt A0ACM8Q262); assay: Opiate receptor binding, mu (brain); set-up: species or system guinea pig; settings: 3H-DAGO, 40 min, 25° C.
T2 construct: [3H]DAGO (DAMGO) displacement
T2 sequence (A0ACM8Q262 1-400): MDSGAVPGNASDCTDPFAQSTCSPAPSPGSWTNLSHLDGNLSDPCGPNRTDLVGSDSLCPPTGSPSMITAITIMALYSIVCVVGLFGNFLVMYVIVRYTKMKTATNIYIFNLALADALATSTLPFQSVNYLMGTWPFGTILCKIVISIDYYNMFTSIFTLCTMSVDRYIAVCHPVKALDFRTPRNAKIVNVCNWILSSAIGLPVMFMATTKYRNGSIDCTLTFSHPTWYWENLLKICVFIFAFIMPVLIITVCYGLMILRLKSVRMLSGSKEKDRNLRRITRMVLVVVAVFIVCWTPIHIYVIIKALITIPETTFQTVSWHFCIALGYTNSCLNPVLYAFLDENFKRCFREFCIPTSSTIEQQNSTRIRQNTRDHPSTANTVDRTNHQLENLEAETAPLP
Method: (§5) Radio receptor binding to μ and K sites is performed on fresh guinea pig brain homogenate prepared according to Kosterlitz. (1981).
(§6) Whole brain without cerebellum is homogenized in 50 mM, Tris-buffer (pH 7.4 at 0° C.) and centrifuged at 49,000×g×10 min.
(§7) The pellet is then resuspended in the same buffer, incubated at 37° C. for 45 min. and centrifuged again.
(§8) 1.9 ml of the final homogenate (1:100 in Tris-pH 7.4, 0° C.) is used for the binding assay.
^3 H [D-Ala^2, MePhe^4, Gly-ol^5 ] Enkephalin (^3 H-DAGO), an enkephalin analogue that binds selectively to μ receptor, is added to the biological substrate and incubated at 25° C. for 40 min., filtered through Whatman GF-C and washed with ice-cold Tris-buffer.
The filters are then dryed, solubilized in Filtercount and the radioactivity monitored. Non specific binding is determined in the presence of 10^-6 M Naloxone.
as §4

[3] = test system: mice; assay: P-phenylquinone-induced abdominal writhing test in mice; format: in vivo, mouse (male Charles River, Swiss Strain); settings: Mus musculus, sc; subcutaneous, 20 min pretreatment, p-phenylquinone 2 mg/Kg i.p.
Method: (A) P-phenylquinone-induced abdominal writing test in mice
The methodology employed is based on that described by Sigmund et al, Proc. Soc. Exptl. Biol. 95, 729/1957, modified by Milne and Twomey, Agents and Actions, 10, 31/1980.
Male Charles River mice (Swiss Strain), 25-36g body weight, were used. Animals were allowed food and water ad libitum and were randomized into groups of 10 prior to experimentation. Test compounds were dissolved in either distilled water or distilled water plus 0.1 M AMS, and administered by the subcutaneous route in a final volume of 10 ml/Kg. Control animals received 10 ml/Kg of the appropriate vehicle alone. Following a pretreatment period of 20 min., mice were injected intraperitoneally with p-phenylquinone, 2 mg/Kg at 37° C. in a final volume of […]. […] During this period the number of abdominal writhing responses per animal were recorded where writhing consists of an intermittent contraction of the abdomen associated with hind leg extension.
The degree of antinociceptive protection afforded by the test compound was determined as the mean number of writhing responses observed in the treated group (T) expressed as a percentage of the mean number of writhing responses in the control group (C) according to the following formula:
[1-(T/C]×100%=% graded protection

[4] = biological target: T3, Kappa opiate receptor (brain) (Cavia porcellus, UniProt P41144); assay: Opiate receptor binding, kappa (brain); set-up: species or system guinea pig
T3 construct: performed on fresh guinea pig brain homogenate; from tissue; host or cells: guinea pig whole brain without cerebellum, homogenate
T3 sequence (P41144 whole entry): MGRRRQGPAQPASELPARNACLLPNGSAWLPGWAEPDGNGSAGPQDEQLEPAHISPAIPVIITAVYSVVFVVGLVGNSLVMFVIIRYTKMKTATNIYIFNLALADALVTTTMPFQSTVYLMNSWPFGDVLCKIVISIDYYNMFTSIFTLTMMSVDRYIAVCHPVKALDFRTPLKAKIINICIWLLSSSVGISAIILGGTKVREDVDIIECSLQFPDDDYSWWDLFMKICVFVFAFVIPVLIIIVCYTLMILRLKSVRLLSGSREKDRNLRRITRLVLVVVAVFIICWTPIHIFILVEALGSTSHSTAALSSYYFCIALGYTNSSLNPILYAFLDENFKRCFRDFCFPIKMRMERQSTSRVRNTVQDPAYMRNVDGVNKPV
Method: as §5, §6, §7, §8
as §1, with “respectively. […]” for “respectively.”
as §2, §3, §4

[5] = test system: mice; assay: Tail-flick test in mice; format: in vivo, mouse (male Charles River, Swiss Strain); settings: subcutaneous, 30 min pretreatment
Method: (B) Tail-flick test in mice
The methodology employed is based on that described by D'Amour and Smith, J. Pharmacol. Exp. Ther. 72. 74/1941.
Male Charles River mice (Swiss Strain), 22-34g body weight were used. Animals were allowed food and water ad libitum and were randomized into groups of 10 prior to experimentation.
Test compounds were dissolved in either distilled water or distilled water plus 0.1 M AMS and administered by the subcutaneous route in a final volume of 10 ml/Kg. Control animals received 10 ml/kg of the appropriate vehicle alone. Following a pretreatment period of 30 min., the mice were again placed under the heat source and the reaction tine re-determined.
Percentage quantal protection was determined as the number of mice in which the reaction time was doubled compared to pretreatment values, expressed as a percentage of the total number of mice in the group.

T1 sequence (P41144 whole entry): as above

Row | SMILES | Ki [1] [nM] | Ki [2] [nM] | ED50 [3] [mg/kg] | Ki [4] [nM] | MOUSE TAIL-FLICK % Analgesia ([5]; dose 0.550 mg/kg) [%] | MOUSE TAIL-FLICK % Analgesia ([5]; dose 0.233 mg/kg) [%] | MOUSE TAIL-FLICK % Analgesia ([5]; dose 8.6 mg/kg) [%] | MOUSE TAIL-FLICK % Analgesia ([5]; dose 10 mg/kg) [%]
1 | O=C1CCCc2cc(CC(=O)N3CCCCC3CN3CCCC3)ccc21 (stereo not drawn) [Example 1, 1-[1-oxo-3,4,-dihydro-(2H)-naphth-6-yl]acetyl-2-(pyrrolidin-1-yl)methyl-piperidine hydrochloride] | 5.24 | > 1000 | 0.235 | 81.7 | 50 | – | – | –
2 | O=C1CCCc2cc(CC(=O)N3CCCC[C@H]3CN3CCCC3)ccc21 [Example 2, (2S)-1-[1-oxo-3,4,-dihydro-(2H)-naphth-6-yl]acetyl-2-(pyrrolidin-1-yl)methyl-piperidine hydrochloride] | 2.21 | 2980 | 0.138 | 49 | – | 50 | – | –
3 | CC(=O)c1ccc(CC(=O)N2CCCC[C@H]2CN2CCCC2)cc1C [Example 4, (2S)-1-(3-methyl-4-acetylphenyl)acetyl-2-(pyrrolidin-1-yl)methyl-piperidinehydrochloride hydrate] | – | – | – | – | – | – | 80 | –
4 | O=C1CCCc2ccc(CC(=O)N3CCCC[C@H]3CN3CCCC3)cc21 [Example 6, (2S)-1-[1-oxo-3,4-dihydro-(2H)-naphth-7-yl] acetyl-2-(pyrrolidin-1-yl)methyl-piperidine hydrochloride] | – | – | – | – | – | – | – | 80
